Measured values from paper PMC5422493, “Important amino acid residues of hexachlorocyclohexane dehydrochlorinases (LinA) for enantioselective transformation of hexachlorocyclohexane isomers” (Biodegradation, 2017).
Numbering of substitutions follows the chain as printed.

Legend:
LinA-type1 = target: T1, LinA-type1 (Sphingobium indicum, UniProt P51697); test: product formation by chiral GC-ECD; type: biochemical; conditions: 50 mM Tris-HCl pH 8.0, 10% glycerol, 30 °C
T1 construct: full length 156 residues, pET-26b(+) NdeI/XhoI (C-terminal His tag), E. coli BL21(DE3), Ni-NTA purified
T1 sequence (P51697 1-156): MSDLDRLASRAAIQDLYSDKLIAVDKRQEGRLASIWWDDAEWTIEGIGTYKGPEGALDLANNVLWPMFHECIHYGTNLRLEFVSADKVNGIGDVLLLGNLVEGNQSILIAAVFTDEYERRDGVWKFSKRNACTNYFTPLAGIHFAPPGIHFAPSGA

LinA-type2 = target: T2, LinA-type2 (uncultured organism, UniProt B5ANU3); test: product formation by chiral GC-ECD; type: biochemical; conditions: 50 mM Tris-HCl pH 8.0, 10% glycerol, 30 °C
T2 construct: natural variant differing from LinA-type1 at ten positions (incl. Q20, C96, G131, M133); pET-26b(+) NdeI/XhoI (C-terminal His tag), E. coli BL21(DE3), Ni-NTA purified
T2 sequence (B5ANU3 1-156): T1 sequence (P51697 1-156) with K20Q, A23G, F68Y, C71T, L96C, F113Y, D115N, R129L, A131G, T133M

Cl[C@H]1[C@H](Cl)[C@@H](Cl)[C@@H](Cl)[C@H](Cl)[C@H]1Cl [γ-HCH]
product formation by chiral GC-ECD (LinA-type1): incubations of LinA-type1 with γ-HCH led to the formation of only γ-PCCH-2 | product formation by chiral GC-ECD (LinA-type2): incubations with LinA-type2 led to the formation of a mixture
